Where a chain is given by its changes, count along the chain named. Like-named read-outs stand apart in the source and are kept apart here. Where no end group is shown, it is not given here.
Tests used:
MBP-SNX17 WT = target: T1, MBP-SNX17 WT (Homo sapiens, UniProt Q15036); test: Fluorescence anisotropy binding of 5-FAM peptides to MBP-SNX17 wild-type
T1 construct: M protein marker, R Retriever complex, FL full-length; His (N, cleaved yes); made in house; host or cells: Escherichia coli BL21(DE3)
T1 sequence (Q15036 1-470): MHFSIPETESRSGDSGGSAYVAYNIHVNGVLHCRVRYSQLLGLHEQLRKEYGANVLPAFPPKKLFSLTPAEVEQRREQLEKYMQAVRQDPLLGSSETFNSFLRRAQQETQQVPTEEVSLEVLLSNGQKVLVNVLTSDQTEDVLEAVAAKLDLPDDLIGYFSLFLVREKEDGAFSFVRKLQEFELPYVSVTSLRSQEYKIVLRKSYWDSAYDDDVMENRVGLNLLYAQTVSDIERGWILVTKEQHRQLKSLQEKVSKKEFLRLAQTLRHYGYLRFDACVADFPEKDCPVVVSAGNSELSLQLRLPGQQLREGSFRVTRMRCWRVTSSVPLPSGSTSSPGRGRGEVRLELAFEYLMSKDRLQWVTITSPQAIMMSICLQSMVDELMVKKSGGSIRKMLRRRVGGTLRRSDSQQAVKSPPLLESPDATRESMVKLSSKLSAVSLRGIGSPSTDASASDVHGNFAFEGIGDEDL
Experimental: (§1) Lyophilized peptides were resuspended in 100 mM Hepes pH 8.0 at 5 mg/ml and further diluted in the assay buffer (50 mM Hepes pH 7.5, 300 mM NaCl, and 1 mM DTT). […] The mixture was incubated at 25 °C for at least 30 min and then transferred to 96 Flat Black plates. Fluorescence anisotropy was measured at 25 °C using Spark 10M Plate Reader (Tecan) with a 485/20 excitation filter and a 535/35 emission filter. The dissociation constants were calculated in GraphPad Prism by nonlinear regression fitting of the experimental data to a one-site total binding model. The final KD measurement is the mean of at least two independent experiments.

MBP-SNX17V380D = target: T2, MBP-SNX17V380D (Homo sapiens, UniProt Q15036, V380D); test: Fluorescence anisotropy binding of 5-FAM peptides to MBP-SNX17 V380D
T2 construct: M protein marker, R Retriever complex, FL full-length; His (N, cleaved yes); made in house; host or cells: Escherichia coli BL21(DE3)
T2 sequence (Q15036 1-470 V380D): T1 sequence (Q15036 1-470) with V380D
Experimental: as §1

MBP-SNX17 L470G = target: T3, MBP-SNX17 L470G (Homo sapiens, UniProt Q15036, L470G); test: Fluorescence anisotropy binding of 5-FAM cargo peptides to MBP-SNX17 L470G
T3 construct: M protein marker, R Retriever complex, FL full-length; His (N, cleaved yes); made in house; host or cells: Escherichia coli BL21(DE3)
T3 sequence (Q15036 1-470 L470G): T1 sequence (Q15036 1-470) with L470G
Experimental: as §1, with “The peptides used for binding assays were synthesized with an N-terminal 5-Carboxyfluorescein (FAM) and HPLC purified (≥95%) by GenScript. Lyophilized” for “Lyophilized”

[1] = target: T4, SNX17FERM-CT (amino acids 109-470) (Homo sapiens, UniProt Q15036); test: Fluorescence anisotropy binding of 5-FAM cargo peptides to SNX17FERM-CT
T4 construct: His-Sumo3 (N, cleaved yes); made in house; host or cells: Escherichia coli BL21(DE3)
T4 sequence (Q15036 109-470): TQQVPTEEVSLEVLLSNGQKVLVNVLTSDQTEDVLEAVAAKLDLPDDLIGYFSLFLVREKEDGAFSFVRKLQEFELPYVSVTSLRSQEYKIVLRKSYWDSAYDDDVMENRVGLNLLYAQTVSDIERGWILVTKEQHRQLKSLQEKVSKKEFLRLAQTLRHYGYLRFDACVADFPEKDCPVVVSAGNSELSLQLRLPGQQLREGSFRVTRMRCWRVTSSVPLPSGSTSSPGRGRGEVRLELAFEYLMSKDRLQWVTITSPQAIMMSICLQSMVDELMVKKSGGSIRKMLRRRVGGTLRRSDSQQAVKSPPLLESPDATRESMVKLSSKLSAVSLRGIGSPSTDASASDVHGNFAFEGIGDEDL
Experimental: as §1

Sequence: KLITYDNPAYEGID [L2 14-mer]
- Kd (MBP-SNX17 WT): 1100 ± 100 nM
- Kd (MBP-SNX17V380D; 0.1 μM 5-FAM peptide, pH 7.5, 300 mM NaCl, 25 °C, one-site total binding, Bmax fixed at 240, three biological replicates (Fig. 4E)): > 32000 nM
- Kd (MBP-SNX17V380D; 5-FAM peptide, replicate Y1, sheet KD-L2-14-mer, unit inferred, read-out: KD MBP-SNX17V380D): > 32000 nM
- Kd (MBP-SNX17V380D; 5-FAM peptide, replicate Y2, sheet KD-L2-14-mer, unit inferred, read-out: KD MBP-SNX17V380D): > 32000 nM
- Kd (MBP-SNX17V380D; 5-FAM peptide, replicate Y3, sheet KD-L2-14-mer, unit inferred, read-out: KD MBP-SNX17V380D): > 32000 nM
- Kd (MBP-SNX17 L470G): 1100 ± 600 nM
- Kd [1]: 640 nM

— article PMC11772769, “Selective cargo and membrane recognition by SNX17 regulates its interaction with Retriever” (EMBO Reports, 2024)
